Measurements from patent US9896433B2, “Antiviral compounds” (priority 2013, dated 2018).

How the values were obtained:
Assay in all cases: microbe, parasite or virus in culture
[1] = system: Pseudotyped HCV GT1a particles (HCVpp, H77 strain E1/E2); assay type: cell-based, Hepatitis C virus GT1a H77 strain; details: Hepatitis C virus, 72 h, read-out: HCVpp GT-1a (EC50, μM)
[2] = system: Pseudotyped HCV GT1b particles (HCVpp, Con1 strain E1/E2); assay type: cell-based, Hepatitis C virus GT1b Con1 strain; details: Hepatitis C virus, 72 h, read-out: HCVpp GT-1b (EC50, μM)
[3] = system: pseudotyped VSV G particles (VSVpp); assay type: cell-based; details: Vesicular stomatitis virus, 72 h, read-out: VSVpp (EC50, μM)

Nc1nc(Nc2ccnc(Cl)c2)n[nH]1 [Compound 1, N^3-(2-Chloro-pyridin-4-yl)-1H-[1,2,4]triazole-3,5-diamine]
EC50 [1]: 2.76 µM | EC50 [2]: 48.9 µM | EC50 [3]: ≥ 100 µM

Nc1nc(Nc2ccc(C(F)(F)F)nc2)n[nH]1 [Compound 2, N^3-(6-Trifluoromethyl-pyridin-3-yl)-1H-[1,2,4] triazole-3,5-diamine]
EC50 [1]: 75.4 µM | EC50 [2]: ≥ 100 µM | EC50 [3]: ≥ 100 µM

Nc1nc(Nc2cc(Cl)nc(Cl)c2)n[nH]1 [Compound 3, N^3-(2,6-Dichloro-pyridin-4-yl)-1H-[1,2,4]triazole-3,5-diamine]
EC50 [1]: 0.191 µM | EC50 [2]: 7.08 µM | EC50 [3]: ≥ 100 µM

Nc1nc(Nc2cccc(C(F)(F)F)n2)n[nH]1 [Compound 4, N^3-(6-Trifluoromethyl-pyridin-2-yl)-1H-[1,2,4] triazole-3,5-diamine]
EC50 [1]: ≥ 100 µM | EC50 [2]: ≥ 100 µM | EC50 [3]: ≥ 100 µM

CC(C)(C)c1csc(Nc2n[nH]c(N)n2)n1 [Compound 5, N^3-(4-tert-Butyl-thiazol-2-yl)-1H-[1,2,4]triazole-3,5-diamine]
EC50 [1]: ≥ 100 µM | EC50 [3]: ≥ 100 µM

Nc1nc(Nc2cc(C(F)(F)F)ccn2)n[nH]1 [Compound 6, N^3-(4-Trifluoromethyl-pyridin-2-yl)-1H-[1,2,4] triazole-3,5-diamine]
EC50 [1]: 62.2 µM | EC50 [3]: ≥ 100 µM

Nc1nc(Nc2csc(Cl)c2)n[nH]1 [Compound 7, N^3-(5-Chloro-thiophen-3-yl)-1H-[1,2,4]triazole-3,5-diamine]
EC50 [1]: 16.4 µM | EC50 [3]: ≥ 100 µM

Cn1nc(Cl)cc(Nc2n[nH]c(N)n2)c1=O [Compound 8, 4-(5-Amino-1H-[1,2,4]triazol-3-ylamino)-6-chloro-2-methyl-2H-pyridazin-3-one]
EC50 [2]: ≥ 100 µM | EC50 [3]: ≥ 100 µM

Nc1nc(Nc2ccc3c(=O)[nH]ncc3c2)n[nH]1 [Compound 9, 6-(5-Amino-1H-[1,2,4]triazol-3-ylamino)-2H-phthalazin-l-one]
EC50 [2]: 4.71 µM | EC50 [3]: ≥ 100 µM

Cn1ncc2cc(Nc3n[nH]c(N)n3)ccc2c1=O [Compound 10, 6-(5-Amino-1H-[1,2,4]triazol-3-ylamino)-2-methyl-2H-phthalazin-1-one]
EC50 [2]: 3.68 µM | EC50 [3]: ≥ 100 µM

Nc1nc(Nc2ccc3nccn3c2)n[nH]1 [Compound 11, N^3-Imidazo[1,2-a]pyridin-6-yl-1H-[1,2,4]triazole-3,5-diamine]
EC50 [1]: 22.3 µM | EC50 [3]: ≥ 100 µM

Nc1nc(Nc2ccn3ccnc3c2)n[nH]1 [Compound 12, N^3-Imidazo[1,2-a]pyridin-7-yl-1H-[1,2,4]triazole-3,5-diamine]
EC50 [2]: > 100 µM | EC50 [3]: > 100 µM
